These results are taken from publication PMC7270141 (International Journal for Parasitology: Drugs and Drug …, 2020).

Data set [1] can be described thus: Single-point metabolic stability, mouse liver microsomes. The format is in vitro ADME. A general note: Liver microsomes are a subcellular fraction often used to study metabolism.
The nature of data set [2]: Lactate dehydrogenase. The following applies: human, Cytotoxicity EC50, HepG2, HepG2, LDH leakage, mean ± SEM, n ≥ 2. A general note: LDH in the medium is a marker of cell lysis.
The subject of data set [3] is HepG2 cells. The experiment in a line: Lactate dehydrogenase. The following applies: for Selectivity Index (SI) = EC50 for HepG2/IC50 for NF54: HepG2 vs NF54.
Data set [4] can be described thus: Single-point metabolic stability, rat liver microsomes. The data set is classed as in vitro ADME.
In data set [5] the test system is P. falciparum multidrug-resistant W2 strain. The experiment in a line: SYBR Green I fluorescence assay, asexual parasite proliferation, W2 strain. The data set is classed as cell-based. The following applies: for Resistance Index (RI) = IC50 for W2/IC50 for NF54: W2 vs NF54.
The nature of data set [6]: Single-point metabolic stability, human liver microsomes. The format is in vitro ADME.
Data set [7] relates to P. berghei. The following applies: murine P. berghei, after a single oral dose; ref François et al., 1997c; cited from earlier work.
Data set [8] can be described thus: Solubility, miniaturised shake-flask method. The format is physicochemical. The following applies: PBS pH 6.5, 24 h at 25 °C, HPLC-DAD, unit from abstract.
Setting [9] is: Plasmodium falciparum, W2, 96 h, read-out: Inhibition of parasite proliferation IC50, W2, multidrug-resistant W2, 96 h drug pressure, mean ± SEM, n ≥ 2.

Where two headings read alike, the source gives them in different places. Where only a bound is given, the exact number is not on record here.

As usually defined, the amount remaining is what is left of the initial amount, in per cent. As usually defined, the EC50 is the concentration needed to bring the measured effect to its halfway point. As to `COc1cc(CO)c(-c2ccc3c(c2O)[C@@H](C)N[C@H](C)C3)c2cccc(O)c12` [Dioncopeltine A (5), dioncopeltine A], the fraction remaining at 0.5 h, 1 μM in data set [1] (male, CD1, mouse, liver microsomes, % Remaining after 30 min, Mouse, 1 μM, mouse liver microsomes 0.4 mg/ml, 30 min, 37 °C) is below 7%; in data set [4] (male, IGS, rat, liver microsomes, % Remaining after 30 min, Rat, 1 μM, rat liver microsomes 0.4 mg/ml, 30 min, 37 °C) it was above 99%; in data set [6] (both, human, liver microsomes, % Remaining after 30 min, Human, 1 μM, human liver microsomes 0.4 mg/ml, 30 min, 37 °C) it was 98%. For the same compound, the EC50 in data set [2] was found to be 39 ± 13.1 µM. Moreover, the “Selectivity Index (SI) = EC50 for HepG2/IC50 for NF54” value (from here on “Selectivity Index (SI) = EC50”) in data set [3] turned out to be 4890.8. In data set [5] (setting [9]), the IC50 was determined as 304 ± 60 nM. Also, in data set [5], the “Resistance Index (RI) = IC50 for W2/IC50 for NF54” value (from here on “Resistance Index (RI) = IC50”) is given as 38.1.

For `COc1cc(C)c(-c2ccc(O)c3c2C[C@@H](C)N[C@@H]3C)c2cccc(O)c12` (single isomer, unassigned) [Dioncophylline C (2a), dioncophylline C], the Parasitaemia decreased in data set [7] is recorded as 99.6%. Also, in data set [8], the “Solubility PBS (pH 6.5)” value was 170 μM. Moreover, the “% Remaining after 30 min, Mouse” value in data set [1] (1 μM, mouse liver microsomes 0.4 mg/ml, 30 min, 37 °C) is 95%. In data set [1] (in vitro intrinsic clearance, mouse liver microsomes), the “Microsomal clearance, Mouse” value was below 11.6 µL/min/mg. Moreover, the “Selectivity Index (SI) = EC50” value in data set [3] is on record as 552.6. Besides, the EC50 in data set [3] (read-out: Cytotoxicity EC50, HepG2, HepG2, LDH leakage, mean ± SEM, n ≥ 2) is 21.2 ± 4 µM. In data set [4] (1 μM, rat liver microsomes 0.4 mg/ml, 30 min, 37 °C), the “% Remaining after 30 min, Rat” value came out at 95%. Moreover, the “Microsomal clearance, Rat” value in data set [4] (in vitro intrinsic clearance, rat liver microsomes) is below 11.6 µL/min/mg. Further, the “Resistance Index (RI) = IC50” value in data set [5] amounted to 2.9. In data set [5] (read-out: Inhibition of parasite proliferation IC50, W2, multidrug-resistant W2, 96 h drug pressure, mean ± SEM, n ≥ 2), the IC50 turned out to be 112 ± 10 nM. Further, the “% Remaining after 30 min, Human” value in data set [6] (1 μM, human liver microsomes 0.4 mg/ml, 30 min, 37 °C) stood at 94%. In addition, the “Microsomal clearance, Human” value in data set [6] (in vitro intrinsic clearance, human liver microsomes) is below 11.6 µL/min/mg.

With `CCN(CC)CCCC(C)Nc1ccnc2cc(Cl)ccc12` (centres unmarked) [Chloroquine, reference compound], the response in data set [2] was half-maximal at 37 ± 4.5 µM (EC50). In data set [3], the “Selectivity Index (SI) = EC50” value is given as 2855.4. Further, the IC50 in data set [5] (setting [9]) is 382 ± 90 nM. In data set [5], the “Resistance Index (RI) = IC50” value was found to be 29.5.
